Data reported in patent US4259235A, “Tricyclic nitrogenous compounds having string plant growth regulating properties” (BASF Aktiengesellschaft, priority 1977, dated 1981).

Assays:
spring barley [1] = assay: Growth height of spring barley, soil (preemergence) treatment, Example 9; assay type: in vivo, spring barley ("Union" variety); settings: 30 days
Method: (§1) Spring wheat of the "Opal" variety and spring barley of the "Union" variety were grown in the winter half of the year under greenhouse conditions in plastic dishes 11.5 cm in diameter, in a peat substrate provided with sufficient nutrients.
(§2) The reductions in growth height caused by the treatment were determined by measuring the height of the plants at the end of the experiment after 30 days' growth, and comparing it with that of untreated plants.

spring barley [2] = assay: Growth height of spring barley, soil treatment, Example 11; assay type: in vivo, spring barley ("Union" variety)
Method: (§3) The test plants--spring wheat ("Opal" variety), spring barley ("Union" variety) and spring rye ("Petkuser" variety)--were grown under greenhouse conditions in plastic dishes 11.5 cm in diameter, in a peat substrate provided with sufficient nutrients.
(§4) The soil (preemergence) treatment was effected after sowing by pouring aqueous formulations of the active ingredients, at four application rates, onto the surface of the substrate.
(§5) The shortening effect caused by the compounds was shown by measurements of the height of the plants at the end of the experiment.
(§6) The prior art compound N,N,N-trimethyl-N-β-chloroethylammonium chloride (CCC, German Printed Application DAS No. 1,294,734) was used for comparison purposes.

spring rye [3] = assay: Growth height of spring rye, leaf treatment, Example 11; assay type: in vivo, spring rye ("Petkuser" variety)
Method: as §3
(§7) Leaf treatment was effected by spraying the plants at a growth height of 11 cm with aqueous formulations of the active ingredients, at three application rates.
as §5, §6

spring barley [4] = assay: Growth height of spring barley, leaf treatment, Example 11; assay type: in vivo, spring barley ("Union" variety)
Method: as §3, §7, §5, §6

spring wheat [5] = assay: Growth height of spring wheat, leaf treatment, Example 11; assay type: in vivo, spring wheat ("Opal" variety)
Method: as §3, §7, §5, §6

spring wheat [6] = assay: Growth height of spring wheat, soil (preemergence) treatment, Example 9; assay type: in vivo, spring wheat ("Opal" variety); settings: 30 days
Method: as §1, §2

spring rye [7] = assay: Growth height of spring rye, soil treatment, Example 11; assay type: in vivo, spring rye ("Petkuser" variety)
Method: as §3, §4, §5, §6

spring barley [8] = assay: Growth height of spring barley, soil treatment, Example 10; assay type: in vivo, spring barley ("Union" variety)
Method: (§8) Spring wheat ("Opal" variety) and spring barley ("Union" variety) were grown under greenhouse conditions in plastic dishes 11.5 cm in diameter, in a peat substrate provided with sufficient nutrients. For the soil (preemergence) treatment, the active ingredients were poured, at two application rates, as aqueous formulations onto the surface of the substrate after sowing.
(§9) The plant height was measured at the end of the experiment. The figures obtained show the shortening effect of the active ingredients under investigation. The prior art compound β-chloroethylphosphonic acid (Ethephon, German Printed Application DAS No. 1,667,968) was used for comparison purposes.

spring wheat [9] = assay: Growth height of spring wheat, leaf treatment, Example 10; assay type: in vivo, spring wheat ("Opal" variety)
Method: as §8
(§10) Leaf treatment was effected by spraying the plants at a growth height of 10 cm with aqueous formulations of the active ingredients at two application rates.
as §9

spring wheat [10] = assay: Growth height of spring wheat, soil treatment, Example 10; assay type: in vivo, spring wheat ("Opal" variety)
Method: as §8, §9

spring barley [11] = assay: Growth height of spring barley, leaf treatment, Example 10; assay type: in vivo, spring barley ("Union" variety)
Method: as §8, §10, §9

## C[N+](C)(C)CCCl.[Cl-] [CCC, N,N,N-trimethyl-N-β-chloroethylammonium chloride, reference compound]
Spring barley [1]; 3 kg/ha
  Plant height: 27.5 cm
  Plant height, % of untreated control: 85.1%
Spring barley [1]; 12 kg/ha
  Plant height: 24.5 cm
  Plant height, % of untreated control: 75.9%
Spring barley [2]; 0.75 kg/ha
  Plant height: 29.5 cm
  Plant height, % of untreated control: 89.9%
Spring barley [2]; 1.50 kg/ha
  Plant height: 29.5 cm
  Plant height, % of untreated control: 89.9%
Spring barley [2]; 3.00 kg/ha
  Plant height: 27.5 cm
  Plant height, % of untreated control: 83.8%
Spring barley [2]; 6.00 kg/ha
  Plant height: 26.0 cm
  Plant height, % of untreated control: 79.3%
Spring rye [3]; 0.75 kg/ha
  Plant height: 27.0 cm
  Plant height, % of untreated control: 94.7%
Spring rye [3]; 1.50 kg/ha
  Plant height: 25.5 cm
  Plant height, % of untreated control: 89.5%
Spring rye [3]; 3.00 kg/ha
  Plant height: 25.5 cm
  Plant height, % of untreated control: 89.5%
Spring barley [4]; 0.75 kg/ha
  Plant height: 27.5 cm
  Plant height, % of untreated control: 98.4%
Spring barley [4]; 1.50 kg/ha
  Plant height: 27.0 cm
  Plant height, % of untreated control: 97.1%
Spring barley [4]; 3.00 kg/ha
  Plant height: 27.0 cm
  Plant height, % of untreated control: 97.1%
Spring wheat [5]; 0.75 kg/ha
  Plant height: 27.5 cm
  Plant height, % of untreated control: 89.3%
Spring wheat [5]; 1.50 kg/ha
  Plant height: 26.0 cm
  Plant height, % of untreated control: 84.4%
Spring wheat [5]; 3.00 kg/ha
  Plant height: 25.0 cm
  Plant height, % of untreated control: 81.2%
Spring wheat [6]; 3 kg/ha
  Plant height: 21.5 cm
  Plant height, % of untreated control: 71.7%
Spring wheat [6]; 12 kg/ha
  Plant height: 19.5 cm
  Plant height, % of untreated control: 65.0%
Spring rye [7]; 0.75 kg/ha
  Plant height: 31.5 cm
  Plant height, % of untreated control: 97.5%
Spring rye [7]; 1.50 kg/ha
  Plant height: 30.5 cm
  Plant height, % of untreated control: 94.4%
Spring rye [7]; 3.00 kg/ha
  Plant height: 30.0 cm
  Plant height, % of untreated control: 92.9%
Spring rye [7]; 6.00 kg/ha
  Plant height: 28.5 cm
  Plant height, % of untreated control: 88.2%

## O=P(O)(O)CCCl [Ethephon, β-chloroethylphosphonic acid, reference compound]
Spring barley [8]; 3 kg/ha
  Plant height: 32.0 cm
  Plant height, % of untreated control: 93.3%
Spring barley [8]; 12 kg/ha
  Plant height: 27.5 cm
  Plant height, % of untreated control: 80.2%
Spring wheat [9]; 1.5 kg/ha
  Plant height: 30.0 cm
  Plant height, % of untreated control: 91.5%
Spring wheat [9]; 6.0 kg/ha
  Plant height: 25.0 cm
  Plant height, % of untreated control: 76.2%
Spring wheat [10]; 3 kg/ha
  Plant height: 29.0 cm
  Plant height, % of untreated control: 90.6%
Spring wheat [10]; 12 kg/ha
  Plant height: 25.0 cm
  Plant height, % of untreated control: 78.1%
Spring barley [11]; 1.5 kg/ha
  Plant height: 27.0 cm
  Plant height, % of untreated control: 96.4%
Spring barley [11]; 6.0 kg/ha
  Plant height: 24.5 cm
  Plant height, % of untreated control: 87.5%

## C1C2C3N=NC3C1C1OC21 (centres unmarked) [drawing 388]
Spring wheat [6]; 3 kg/ha
  Plant height: 21.5 cm
  Plant height, % of untreated control: 71.7%
Spring wheat [6]; 12 kg/ha
  Plant height: 12.5 cm
  Plant height, % of untreated control: 41.7%

## c1ccc(C2=NOC3C4CC(C5N=NC45)C23)cc1 (centres unmarked) [drawing 389]
Spring wheat [6]; 3 kg/ha
  Plant height: 20.0 cm
  Plant height, % of untreated control: 66.7%
Spring wheat [6]; 12 kg/ha
  Plant height: 14.0 cm
  Plant height, % of untreated control: 46.7%

## C1C2C3N=NC3C1C1OC21 (centres unmarked) [drawing 390]
Spring barley [1]; 3 kg/ha
  Plant height: 25.0 cm
  Plant height, % of untreated control: 77.4%
Spring barley [1]; 12 kg/ha
  Plant height: 14.0 cm
  Plant height, % of untreated control: 43.3%

## c1ccc(C2=NOC3C4CC(C5N=NC45)C23)cc1 (centres unmarked) [drawing 391]
Spring barley [1]; 3 kg/ha
  Plant height: 24.5 cm
  Plant height, % of untreated control: 75.9%
Spring barley [1]; 12 kg/ha
  Plant height: 16.0 cm
  Plant height, % of untreated control: 49.5%

## Clc1ccc(C2=NOC3C4CC(C5N=NC45)C23)cc1 (centres unmarked) [drawing 414]
Spring barley [11]; 1.5 kg/ha
  Plant height: 26.0 cm
  Plant height, % of untreated control: 92.9%
Spring barley [11]; 6.0 kg/ha
  Plant height: 24.5 cm
  Plant height, % of untreated control: 87.5%

## FC(F)(F)c1cccc(NC2C(I)C3CC2C2N=NC32)c1 (centres unmarked) [drawing 415]
Spring barley [11]; 1.5 kg/ha
  Plant height: 25.0 cm
  Plant height, % of untreated control: 89.3%
Spring barley [11]; 6.0 kg/ha
  Plant height: 24.0 cm
  Plant height, % of untreated control: 85.7%

## c1ccc(C2=NNC3C4CC(C5N=NC45)C23)cc1 (centres unmarked) [drawing 416]
Spring wheat [5]; 0.75 kg/ha
  Plant height: 26.5 cm
  Plant height, % of untreated control: 86.0%
Spring wheat [5]; 1.50 kg/ha
  Plant height: 25.5 cm
  Plant height, % of untreated control: 82.8%
Spring wheat [5]; 3.00 kg/ha
  Plant height: 24.0 cm
  Plant height, % of untreated control: 77.9%

## c1ccc(C2=NNC3C4CC(C5N=NC45)C23)cc1 (centres unmarked) [drawing 417]
Spring barley [2]; 0.75 kg/ha
  Plant height: 32.0 cm
  Plant height, % of untreated control: 97.6%
Spring barley [2]; 1.50 kg/ha
  Plant height: 28.0 cm
  Plant height, % of untreated control: 85.4%
Spring barley [2]; 3.00 kg/ha
  Plant height: 27.0 cm
  Plant height, % of untreated control: 82.3%
Spring barley [2]; 6.00 kg/ha
  Plant height: 23.0 cm
  Plant height, % of untreated control: 70.1%

## c1ccc(C2N=NC3C4CC(C5N=NC45)C23)cc1 (centres unmarked) [drawing 418]
Spring barley [4]; 0.75 kg/ha
  Plant height: 23.5 cm
  Plant height, % of untreated control: 84.5%
Spring barley [4]; 1.50 kg/ha
  Plant height: 23.0 cm
  Plant height, % of untreated control: 82.7%
Spring barley [4]; 3.00 kg/ha
  Plant height: 21.5 cm
  Plant height, % of untreated control: 77.3%

## Clc1ccc(NC2C(Cl)C3CC2C2N=NC32)cc1 (centres unmarked) [drawing 419]
Spring barley [4]; 0.75 kg/ha
  Plant height: 26.0 cm
  Plant height, % of untreated control: 93.5%
Spring barley [4]; 1.50 kg/ha
  Plant height: 25.5 cm
  Plant height, % of untreated control: 91.7%
Spring barley [4]; 3.00 kg/ha
  Plant height: 23.5 cm
  Plant height, % of untreated control: 84.5%

## Clc1ccc(NC2C(Cl)C3CC2C2N=NC32)cc1 (centres unmarked) [drawing 421]
Spring rye [7]; 0.75 kg/ha
  Plant height: 28.0 cm
  Plant height, % of untreated control: 86.7%
Spring rye [7]; 1.50 kg/ha
  Plant height: 27.0 cm
  Plant height, % of untreated control: 83.5%
Spring rye [7]; 3.00 kg/ha
  Plant height: 25.0 cm
  Plant height, % of untreated control: 77.4%
Spring rye [7]; 6.00 kg/ha
  Plant height: 23.0 cm
  Plant height, % of untreated control: 71.2%

## c1ccc(C2N=NC3C4CC(C5N=NC45)C23)cc1 (centres unmarked) [drawing 422]
Spring rye [3]; 0.75 kg/ha
  Plant height: 23.0 cm
  Plant height, % of untreated control: 80.7%
Spring rye [3]; 1.50 kg/ha
  Plant height: 20.5 cm
  Plant height, % of untreated control: 71.9%
Spring rye [3]; 3.00 kg/ha
  Plant height: 20.5 cm
  Plant height, % of untreated control: 71.9%

## Clc1ccc(NC2C(Cl)C3CC2C2N=NC32)cc1 (centres unmarked) [drawing 423]
Spring rye [3]; 0.75 kg/ha
  Plant height: 25.5 cm
  Plant height, % of untreated control: 89.5%
Spring rye [3]; 1.50 kg/ha
  Plant height: 24.5 cm
  Plant height, % of untreated control: 86.0%
Spring rye [3]; 3.00 kg/ha
  Plant height: 24.5 cm
  Plant height, % of untreated control: 86.0%
